Measurements: patent publication US10383955B2, “Human mast cell lines, preparation and uses” (CENTRE NATIONAL DE LA RECHERCHE SCIENTIFIQUE, priority 2011, dated 2019)
“Also recorded” adds a separate entry of the source.

What was measured:
ROSA KIT WT line = experiment: Proliferation of ROSA KIT WT line with tyrosine kinase inhibitors (WST-1); type: cell-based; settings: 1 μM/l, 48 hours, medium with human SCF 80 ng/ml, relative to DMSO 0.1%
Description: (§1) Finally, the inventors evaluated the effect of two molecules which inhibit tyrosine kinase activity, imatinib and dasatinib (both supplied by Sequoia Research), on the proliferation of the 3 ROSA KIT WT, ROSA KIT D816V and ROSA KIT Delta 417-419 insY lines. To do this, the cells were seeded at a starting concentration of 3×10^5 cells per ml in 96-well plates (100 μl per well) and incubated at 37° C. in an incubator (5% CO2 in air) for 48 hours in the presence of 1 μM/l of imatinib or of dasatinib (in DMSO brought to a final concentration of 0.1%) or in the presence of DMSO alone (0.1% final concentration) in their usual culture medium (containing human SCF at 80 ng/ml for the ROSA KIT WT line but without SCF for the ROSA KIT D816V and ROSA KIT Delta 417-419 insY lines). At the end of this incubation, 10 μl of WST-1 (Roche Applied Science) are added to each well and the cells are incubated for a further 3 hours in an incubator at 37° C. The number of live cells is then measured for each condition by reading the absorbance at 450 nm using a Multiskan MS plate reader (Thermo LabSystems).
(§2) The results obtained for each line (presented in FIG. 15) are expressed as % of live cells (the condition DMSO alone at 0.1% final concentration being considered to contain 100% of live cells).

KIT D816V mutation = KIT D816V mutation (Homo sapiens, UniProt P10721, D816V); settings: cited from earlier work
[1] = system: HMC-1, subclone HMC-1.1 (KIT V560G); settings: juxtamembrane KIT V560G mutation; cited from earlier work
[2] = system: subclone HMC-1.2 (KIT V560G and D816V); settings: two KIT mutations (V560G and D816V); cited from earlier work
[3] = system: ROSA KIT Delta 417-419 insY line; experiment: Proliferation of ROSA KIT Delta 417-419 insY line with tyrosine kinase inhibitors (WST-1); type: cell-based, human; settings: 1 μM/l, 48 hours, without SCF, relative to DMSO 0.1%
Description: as §1, §2

ROSA KIT D816V line = experiment: Proliferation of ROSA KIT D816V line with tyrosine kinase inhibitors (WST-1); type: cell-based, human; settings: 1 μM/l, 48 hours, without SCF, relative to DMSO 0.1%
Description: as §1, §2

[4] = in therapy; cited from earlier work
[5] = system: cells of the ROSA KIT WT line; experiment: FcεRI and KIT expression after IL-4 treatment (flow cytometry); type: cell-based, human; settings: IL-4 20 ng/ml for 5 days
Description: Since it has been shown in the literature that interleukin-4 (IL-4) induces a decrease in KIT expression and an increase in FcεR1 expression by normal human mast cells, the inventors wanted to verify whether this phenomenon could also be observed on the ROSA KIT WT line. For this, they used the following technique: • 10 ml of cells in culture at approximately 2×10^5 cell/ml are used for each tube. • The cells are centrifuged and the pellet is taken up in 10 ml of new culture medium and then the cells are treated with IL-4 (20 ng/ml) (R&D) for 5 days. • The cells are centrifuged in order to remove the culture medium. • The pellets are taken up in 100 μl of PBS+1% FCS, and incubated for 45 min at +4° C. in the presence of anti-human IgE antibody coupled to FITC (20 μl/l million cells (Merck Bioscience)), or in the presence of anti-human KIT antibody coupled to APC (20 μl/l million cells) (Biolegend). • Two rinses are carried out in 3 ml of PBS, 0.1% FCS, and then the tubes are centrifuged. • The pellets are collected in 300 μl of PBS, 0.1% FCS.
The reading is carried out by FACS (BD FACSCalibur).

[6] = system: ROSA KIT WT, ROSA KIT Delta 417-419 insY and KIT D816V lines; experiment: Membrane marker expression in the three ROSA lines (flow cytometry); type: cell-based, human; settings: IL-4 20 ng/ml
Excerpt: Moreover, the expression of certain membrane markers present on the cells of the ROSA KIT Delta 417-419 insY and KIT D816V lines, optionally present in the presence of SCF, was studied by flow cytometry, this expression being compared with that of the cells of the ROSA KIT WT line. The results obtained (presented in FIG. 12) were the following: • the cells of the ROSA KIT Delta 417-419 insY and KIT D816V lines spontaneously express (in the absence of SCF) more CD38, CD203c and KIT than the cells of the ROSA KIT WT line, this increase in expression being completely abolished in the presence of SCF, • the cells of the KIT D816V line express more CD54 than the cells of the other two lines, whether in the absence or in the presence of SCF, • the cells of the KIT D816V line express more FcεR1 than the cells of the other two lines in the absence of SCF, this phenomenon being abolished by adding SCF, • the cells of the ROSA KIT Delta 417-419 insY and KIT D816V lines express, in the presence of SCF, more CD63 than the cells of the ROSA KIT WT line, this increase in expression being completely abolished in the absence of SCF, • the expression of CD53 and of FcεR1 is increased in the 3 lines by treatment with IL-4 (20 ng/ml), and • the expression of KIT is decreased in the three lines by treatment with IL-4 (20 ng/ml).

[7] = system: cells of the ROSA KIT WT line; experiment: Membrane CD203c expression after stimulation (flow cytometry); type: cell-based, human; settings: cells treated with IL-4 + IgE 5 days; anti-IgE 5 or 10 μg/ml or calcium ionophore 1 μmol/l, 1 hour
Description: In order to know whether the cells of the ROSA KIT WT line can be activated by the IgE-anti-IgE antibody coupling, resulting in degranulation with immediate release of histamine and of β-hexosaminidase associated with a significant increase in membrane CD203c expression and with delayed release of TNF-alpha, cells are treated with IL-4 (20 ng/ml) and IgE (2 μg/ml) (Merck Bioscience) for 5 days and then stimulated with anti-IgE (5 or 10 μg/ml) (Biovalley) or with the calcium ionophore (Cai) (Sigma) (1 μmol/l) for 1 or 6 hours. The 1 hour supernatant and also the pellet are used to assay the histamine and to measure the expression of CD203c at the cell surface, while the TNF-alpha is measured by a specific ELISA method in the supernatant of the cells after 6 hours of stimulation.
One ml of cells treated with IL-4 (20 ng/ml) and IgE (2 μg/ml) for 5 days are washed twice with 3 ml of PBS and then again placed in culture medium at a concentration of 1×10^6 cells/ml. These cells are then stimulated with anti-IgE (5 or 10 μg/ml) or with the calcium ionophore (Cai) (1 μmol/l) for 1 hour. The cells are washed with PBS and put back into 100 μl of PBS, 1% FCS in the presence of an antibody directed against human CD203c, coupled to phycoerythrin (PE) (20 μl/l million cells) (Biolegend).

[8] = system: cells of the ROSA KIT WT line; experiment: β-hexosaminidase release after stimulation; type: cell-based, human; settings: cells treated with IL-4 20 ng/ml and IgE 2 μg/ml; anti-IgE 5 μg/ml or calcium ionophore 1 μmol/l, 1 hour
Description: The activation of the cells of the ROSA KIT WT line was also measured by determining the released β-hexosaminidase activity. ROSA cells treated with IL-4 (20 ng/ml) and IgE (2 μg/ml) are subsequently activated for 1 hour at 37° C. in the presence of 5% CO2, with the anti-IgE antibody (5 μg/ml) or with the calcium ionophore (Cai) (1 μmol/l).
The cells are then centrifuged and the supernatants are recovered and frozen at −80° C. until the time of the assay. The cells are then lysed. The β-hexosaminidase activity is measured in the supernatant and also in the cell pellet as described by Schwartz and Austen, J Invest Dermatol., 74, 349-353, 1980.
The hydrolysis of p-nitrophenyl-2-acetamido-2-deoxy-β-D-glucopyranoside (or 4-nitrophenyl-N-acetyl-β-D-glucosaminide) by β-hexosaminidase leads to the release of a chromophore product: p-nitrophenol. The latter is measured by spectrophotometry at 405 nm. • 50 μl of p-nitrophenyl-2-acetamido-2-deoxy-β-D-glucopyranoside (Sigma) are added to 5 μl of supernatant • Incubation for 2 hours at 37° C. with stirring. • Addition of 150 μl of stop solution (7.5 g of glycine in 500 ml of H2O, pH=10.7). Reading at 405 nm.

Sequence of KIT D816V mutation (P10721 26-976 D816V): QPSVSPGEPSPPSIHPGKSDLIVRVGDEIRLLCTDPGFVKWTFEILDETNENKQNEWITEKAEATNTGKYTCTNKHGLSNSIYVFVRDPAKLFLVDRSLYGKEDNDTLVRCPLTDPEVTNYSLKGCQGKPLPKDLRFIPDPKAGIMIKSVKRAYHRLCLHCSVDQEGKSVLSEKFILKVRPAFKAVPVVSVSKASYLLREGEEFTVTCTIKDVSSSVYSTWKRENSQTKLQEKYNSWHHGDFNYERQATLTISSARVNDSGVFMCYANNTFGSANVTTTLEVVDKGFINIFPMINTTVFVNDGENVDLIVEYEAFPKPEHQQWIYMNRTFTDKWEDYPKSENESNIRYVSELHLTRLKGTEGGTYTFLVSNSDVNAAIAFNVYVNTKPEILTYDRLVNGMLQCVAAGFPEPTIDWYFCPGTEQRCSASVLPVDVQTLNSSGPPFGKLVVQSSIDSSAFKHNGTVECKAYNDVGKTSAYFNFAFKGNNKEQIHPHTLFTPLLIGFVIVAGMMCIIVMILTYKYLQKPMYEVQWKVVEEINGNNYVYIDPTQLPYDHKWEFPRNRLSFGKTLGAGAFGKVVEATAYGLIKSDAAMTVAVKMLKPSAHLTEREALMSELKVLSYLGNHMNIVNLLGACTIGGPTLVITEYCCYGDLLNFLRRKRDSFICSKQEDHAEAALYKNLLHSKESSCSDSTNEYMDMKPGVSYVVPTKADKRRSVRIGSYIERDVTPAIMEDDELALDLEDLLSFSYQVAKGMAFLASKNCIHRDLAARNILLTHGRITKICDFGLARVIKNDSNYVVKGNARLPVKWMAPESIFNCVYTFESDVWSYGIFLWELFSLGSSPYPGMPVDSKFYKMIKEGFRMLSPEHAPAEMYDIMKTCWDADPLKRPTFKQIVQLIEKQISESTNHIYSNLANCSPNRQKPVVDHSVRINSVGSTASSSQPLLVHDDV

In the case of Cc1ccc(NC(=O)c2ccc(CN3CCN(C)CC3)cc2)cc1Nc1nccc(-c2cccnc2)n1 [imatinib], the “inhibition of proliferation (% of live cells)” value (“inhibition … (% of live cells)” for short) (ROSA KIT WT line) is listed as “sensitive”, the “activity on the KIT D816V mutation” value (KIT D816V mutation) is listed as “completely inactive” and the “sensitivity of the line” value [1] is listed as “sensitive”. The “sensitivity of the line” value [2] was “not”, the “inhibition … (% of live cells)” value [3] was “sensitivity” and the “inhibition … (% of live cells)” value ([3]; listed as Imatinib) was “sensitive”. The “inhibition … (% of live cells)” value (ROSA KIT D816V line) was “resistance; also recorded: incapable of inhibiting the proliferation”.
In the case of Cc1nc(Nc2ncc(C(=O)Nc3c(C)cccc3Cl)s2)cc(N2CCN(CCO)CC2)n1 [dasatinib], the toxicity in humans [4] is given as “high toxicity”.
For IL-4: interleukin-4 cytokine (R&D), the KIT expression [5] was “decrease”, the “expression of the high-affinity IgE receptor” value [5] was “increase” and the “expression of CD53” value ([6]; in the 3 lines) was “increased”. For the same molecule, the “expression of FcεR1” value ([6]; in the 3 lines) was “increased” and the “expression of KIT” value ([6]; in the three lines) was “decreased”.
With CNc1ccc2oc(C[C@H]3O[C@@]4(CC[C@H]3C)O[C@H]([C@H](C)C(=O)c3ccc[nH]3)[C@H](C)C[C@H]4C)nc2c1C(=O)O [calcium ionophore, calcium ionophore A23187] the “membrane CD203c expression” value [7] was “increase” and the “β-hexosaminidase release, of the total enzyme content of the cells” value [8] was “up to 80%”.
